Values after ≈ are worked out from the molar mass of the structure shown. Marks after values point to notes of the source that are not given here.
Tests used:
[1] = system: C57Bl/6 mice, MPTP-induced model of PD; test: Mouse MPTP model of Parkinson's Disease, open field locomotor assay; format: in vivo; conditions: MPTP 60 mg/kg (3 x 20 mg/kg at two-hour intervals)
Source text: Animals. Species: Mouse. Strain: C57Bl/6. Source of Animals: Charles River. Age: 6 to 7 weeks. Sex: Male. Randomization: Animals were assigned randomly to treatment groups. Blinding of Study: Experimenters were blinded to the experimental treatments
Housing and Feeding. Acclimation/Conditioning: Not less than three days. Housing: Mice were housed on a 12 hr light/dark cycle (lights on 6:00 AM) No more than 4 mice per cage. Ventilated cage rack system. Diet: Standard rodent chow and water ad libitum.
Design Parameters. Route(s) of administration: PO. Dose Volume: PO: 5 mL/kg. Formulation(s): formulated by Melior according to directions from BioElectron. Vehicle-sesame oil (Spectrum Chemical, NF Catalog #SE130, CAS #8008-74-0). Dose Levels: 300 mg/kg. Dose Frequency: QD starting Day −2 (MPTP=Day 0) and until Day 7. Study duration: 11 days. Pretreatment time (up to 2 hrs): For Day 0 (MPTP Day): 30 min, Pretreatment time for Open Field Assay/Locomotor Activity (OFA/LMA) assay: 1 hr. Number of Groups: 3. Number of animals per group: 10. Total number of animals: 30 (in the study), 42 animals total (To ensure a proper power analysis of at least 10 animals/group, for all groups receiving MPTP, 4 additional animals were added to mitigate study impacts if there were MPTP-induced fatalities).
MPTP Treatment. MPTP was formulated in phosphate buffered saline and administered to mice three times at a dose of 20 mg/kg (1 mg/mL delivered at 20 mL/kg) at two-hour intervals (final dose of MPTP=60 mg/kg).
Locomotor activity. One day prior (baseline) and on Day 7 after MPTP administration (Day (−1) and Day 7), mice were monitored for various aspects of locomotor function using a fully automated open-field apparatus (Med-Associates, Inc). The apparatus consisted of a 10.75″×10.75″ arena enclosed in a sound-attenuated box, equipped with the fan and house light. […]
Data analysis. Data were averaged and are expressed as the average±SEM.
Data were analyzed by one-way ANOVA followed by a post-hoc tests. p-values of less than 0.05 were considered to be statistically significant from control.

[2] = Solubility in simulated fluids and water; format: physicochemical
Method: Solubility of Pattern A and melted solid was assessed in Fasted-State Simulated Gastric Fluid (FaSSGF), Fed-State Simulated Intestinal Fluid (FeSSIF), and Fasted-State Simulated Intestinal Fluid (FaSSIF), water, and 0.5% methyl cellulose+2% Tween80 in water. Five foil-covered 4 mL vials were prepared with 11-13 mg of as-received material (ID-1-1), 10 mm stir bars were included. Five foil-covered 4 mL vials containing between 11-13 mg of C9 were melted on a hot plate at 70° C. for 10 min and cooled to room temperature for 5 min, 10 mm stir bars were included.
Slurries were prepared with the as-received material ID-1-1 (Pattern A) and melted C9, each in 2.5 mL of simulated fluids (including 0.5% methyl cellulose+2% Tween80 in water), or water. The samples containing melted active pharmaceutical ingredient (API) were sonicated briefly, as they appeared to contain clumps of material. […] For solubility analysis 1 mL of each sample was pipetted into a syringe filter, the first 0.5 mL was filtered back into the source vial and the remaining 0.5 mL was filtered into HPLC vials with low volume inserts.
The response factor calculated with the calibration points was used to determine the concentrations of API in the simulated fluids and water. Calibration samples were prepared with as-received material (ID-1-1) in ACN. The concentrations and peak areas for each calibration point were plotted and a response factor calculated for solubility assessment.
Due to high pressures observed with the UPLC column, a different column and a modified method was employed for 24 h data points with 0.5% methyl cellulose+2% Tween80 in water, and 24 h in water (ID-30-4, ID-30-9 and ID-30-10). HPLC samples of ID-30-4 and 30-9 (those containing the methyl cellulose/Tween80 mixture) were diluted 10× with ACN. These samples plus a new set of injections of the calibration points were analyzed, a new response factor was determined, and the solubility of the remaining samples was calculated (response factor: 8084.7908; R2: 0.9989).

[3] = Humidification cycling by dynamic vapor sorption (DVS); format: physicochemical
Method: As-received material (ID 1-1) was subjected to humidification cycling by dynamic vapor sorption (DVS) instrument. The material underwent a 0.01% change in mass in the 15-75% relative humidity range, and a 0.08% change in mass over the full range of 2-95% relative humidity. Following humidification cycling, the solid was analyzed by XRPD.

[4] = Solid form stability, one week at 75% RH and 40° C.; format: physicochemical; conditions: 7 days, 75% relative humidity
Method: The solid form stability of the material was assessed over one week. 49.0 mg of ID-1-1 was placed inside of a foil-covered 4 mL vial, which was covered with a KimWipe. This vial was placed inside a 20 mL vial containing saturated aqueous sodium chloride. The vial was placed on a hot plate at 40° C. for 7 days, creating an atmosphere of 75% relative humidity in the system. After 7 days, the solid was sampled for HPLC (ID-4-1).
A sample of the stressed material was plated and analyzed by XRPD; the observed pattern was Pattern A. The XRPD data is shown in FIG. 16. Microscopy images of ID-4-1 were captured at 100× and 400× magnification. The images are shown in FIG. 17A (100×) and FIG. 17B (400×).

SMILES	depletion of dopamine in the striatum [1]	Solubility at 24 hours ([2]; 0.5% MC + 2% Tween80 (aq), Phenomenex Luna Phenyl Hexyl HPLC column and modified method)	Solubility at 24 hours (mg/mL) ([2]; 0.5% MC + 2% Tween80 (aq), Phenomenex Luna Phenyl Hexyl HPLC column and modified method, listed as A)	Conc. (mg/mL) at 30 min ([2]; 0.5% MC + 2% Tween80 (aq.))	Conc. (mg/mL) at 30 min ([2]; FaSSGF)	Solubility at 24 hours (mg/mL) ([2]; FaSSGF)	Conc. (mg/mL) at 30 min ([2]; FaSSIF)	Solubility at 24 hours (mg/mL) ([2]; FaSSIF)	Conc. (mg/mL) at 30 min ([2]; FeSSIF)	Solubility at 24 hours ([2]; FeSSIF)	Conc. (mg/mL) at 30 min ([2]; water)	Solubility at 24 hours (mg/mL) ([2]; water)	DVS Change Mass (wt. %) ([3]; 2-95% RH)	DVS Change Mass (wt. %) ([3]; 15-75% RH)	change in mass (DVS) ([3]; 15-75% relative humidity range)	hygroscopicity ([3]; DVS humidification cycling)	change in mass (DVS) ([3]; full range of 2-95% relative humidity)	XRPD pattern of stressed material [4]	impurities by HPLC in stability sample [4]
CN1CC=C(c2ccccc2)CC1 [MPTP, 1-methyl-4-phenyl-1,2,3,6-tetrahydropyridine, reference compound]	~74%	–	–	–	–	–	–	–	–	–	–	–	–	–	–	–	–	–	–
CCCCCCCCCC1=C(C)C(=O)C(C)=C(C)C1=O [Pattern A, 2,3,5-trimethyl-6-nonylcyclohexa-2,5-diene-1,4-dione]	–	310 µg/mL	0.31# mg/mL	0.53 mg/mL	BDL	BDL	0.01 mg/mL	BDL	0.29 mg/mL	200 µg/mL (≈ 724 µM)	BDL	BDL	0.08 wt. %	0.01 wt. %	0.01%	not hygroscopic	0.08%	Pattern A	did not show any impurities

Reference: patent US20230339835A1, “2,3,5-TRIMETHYL-6-NONYLCYCLOHEXA-2,5-DIENE-1,4-DIONE FOR SUPPRESSING AND TREATING ALPHA-SYNUCLEINOPATHIES, TAUOPATHIES, AND OTHER DISORDERS” (PTC THERAPEUTICS, INC., priority 2018, published 2023)
